These results are taken from patent US20220387457A1 (Qlaris Bio, Inc., priority 2020, published 2022).

Data set [1] deals with normotensive hound dogs (IOP). The experiment in a line: Dose response of CKLP1 on IOP in hound dogs. In kind it is in vivo, hound dog. The conditions noted are these: for IOP lowering: 5 consecutive days, vs baseline. As to the method: In order to determine the optimal topical ocular dose of CKLP1 for subsequent pharmacokinetic studies, hound dogs (n=3) were treated with four different concentrations of CKLP1 (5 mM, 10 mM, 15 mM and 20 mM) once daily for 5 consecutive days. […] No difference in IOP reduction was noted between the 10 and 15 mM doses (p=0.57). To utilize the lowest dose concentration with effective IOP reduction, a 50 μL topical ocular administration of 10 mM CKLP1 was selected as the optimal dose for all subsequent experiments.
IOP was measured three times each day at times that corresponded to 1 hour, 4 hours and 23 hours post treatment. The average of the measurements at three time points on any given day was recorded as the daily IOP.
For the dose response study, baseline IOP measurements were obtained and recorded (three consecutive days prior to treatment). One eye of each dog was treated with a 50 μL topical ocular administration of 5 mM CKLP1 and the contralateral eye was treated with 10 mM CKLP1 once daily for 5 consecutive days. After 5 days, the eyes that received 5 mM CKLP1 was treated with 15 mM CKLP1 while the eye with 10 mM CKLP1 received 20 mM CKLP1. IOPs were measured every day at times corresponding to 1, 4, and 23 hours post treatment. For all experiments, the right eye was used as control while the left eye was selected as the treatment eye.

For data set [2], the system named is normotensive hound dogs (IOP). Briefly: Extended-dose (61 days) study of CKLP1 on IOP in hound dogs. It counts as in vivo, hound dog. The procedure:
(§1) To evaluate the effect of IOP lowering long-term, hound dogs (n=5) were treated with 10 mM CKLP1 in one eye and vehicle (PBS) in the contralateral eye once daily for 61 consecutive days. […] On average, IOP was reduced by 18.9±1.3% (reduction of 3.0±0.5 mmHg; p<0.001) in all five hound dogs over the entire treatment period. Additionally, no significant change in systolic (baseline, 141.0±6.7; treatment, 138.9±9.5; p=0.56) or diastolic (baseline, 80.1±8.9; treatment, 78.1±5.9; p=0.76) blood pressure was observed during the treatment period (FIG. 7B). Hound dogs were also evaluated for eye redness, swelling of the eye or eyelids, unusual discharge from eye and overall food intake.
(§2) For the extended dose study, baseline IOPs were measured three times daily for 5 consecutive days. The average of the three measurements was recorded as the daily IOP and averaged over the 5 days for the final pre-treatment value. Following baseline IOP measurements, dogs (n=5) were treated with 10 mM CKLP1 in one eye, while the contralateral eye received vehicle (PBS). IOP was measured at least three times every week at times corresponding to 1, 4, and 23 hours post treatment. Blood pressure was measured three times each week at the 4 hour post treatment time point.

Data set [3] is described as follows: Toxicity and clinical signs after escalating intravenous doses of CKLP1 in beagles. In kind it is in vivo, beagle dog. The conditions noted are these: both sexes, beagle, dog, in vivo. As to the method:
(§3) Two beagles (one male and one female) were intravenously injected with escalating doses of CKPL1 (0.05 mg/kg, 0.5 mg/kg, 1.5 mg/kg, 3 mg/kg, and 5 mg/kg) to assess the toxicity of CKLP1. The injection was done through the cephalic vein and CKLP1 was administered in a phosphate buffered saline solution ((0.096% sodium phosphate dibasic, 0.089% sodium dihydrogen orthophosphate monohydrate, 0.83% sodium chloride) pH 6.5±0.1 in sterile water for injection USP). The dosing schedule is shown below in Table 3.
(§4) The following parameters and endpoints were evaluated: mortality, clinical observations, body and organ weights, and food consumption. Bioanalytical samples for toxicokinetic parameters (for both CKLP1 and leveromakalim) were collected after each dose level (days 1, 3, 8, 10, and 14) at predose, 1, 3, 6, 8, and 24 hours postdose. Animals were released from the study after completion of the bioanalytical sample collection schedule.

Another data set concerns beagles. The description is as above. It counts as in vivo, beagle dog. The conditions noted are these: for dose with red discoloration of the skin: IV. The procedure:
as §3, §4

For data set [4], the system named is hound dogs (systemic blood pressure). The experiment in a line: Systemic blood pressure in hound dogs during 61-day topical CKLP1. It counts as in vivo, hound dog. The conditions noted are these: 10 mM CKLP1 topical once daily. The procedure: as §1, §2
Data set [5] concerns African green monkeys (systemic blood pressure). Briefly: Systemic blood pressure in African green monkeys during 7-day topical CKLP1. In kind it is in vivo, African green monkey. Conditions: 10 mM CKLP1, 7 days. The procedure: To further validate the IOP lowering effects of CKLP1 in large animal models, one eye of five African green monkeys was treated with topical ocular administration of 10 mM CKLP1, while the contralateral eye received vehicle (PBS). Baseline IOP in control and treated eyes were 20.1±1.8 mmHg and 21.9±2.5 mmHg, respectively.
For treatment days, 10 mM CKLP1 (dissolved in PBS) was added to one eye of each monkey in a 50 μl topical ocular administration, once daily, for 7 consecutive days, while the contralateral eye received a 50 μl ocular administration of vehicle (PBS).

Data set [6] concerns Dutch-belted pigmented rabbits (IOP). Conditions: previously reported; cited from earlier work.
For data set [7], the system named is 3D-glaucomatous human trabecular meshwork/Schlemm's canal tissue model. The experiment in a line: Outflow facility by perfusion in 3D-glaucomatous human trabecular meshwork/Schlemm's canal constructs. It counts as cell-based. The conditions noted are these: levcromakalim 1 μM, TGF-β2 treated constructs, 4 donors, vs TGF-β2 (P<0.0001) or Y-27632 (P<0.05). The procedure:
Bioengineered 3D conventional outflow tract constructs using 4 donors (ages 47-91) were treated with […] (5 ng/mL) for 6 days. […] Protein expression of α-smooth muscle actin (α-SMA), CD31, endothelin-I, fibronectin, VE-cadherin, phospho-eNOS and total eNOS was analyzed via western blot. Cellular expression of α-SMA, fibronectin, phospho-eNOS and total eNOS was determined by immunocytochemistry and confocal microscopy. Statistical significance was determined by one-way ANOVA with a Tukey's multiple comparisons test, or by two-way ANOVA.

[8] abbreviates: 10 mM CKLP1 once daily, 61 days, vs vehicle eye.

Bounds are passed on as bounds.

As usually defined, the NOAEL is the highest tested level that showed no adverse finding. One may read the MTD as the highest dose tested that stayed within the study's limit of toxicity. In the case of `CC1(C)Oc2ccc(C#N)cc2[C@@H](N2CCCC2=O)[C@@H]1OP(=O)(O)O` [CKLP1], the “IOP lowering, all concentrations” value in data set [1] (5 mM, 10 mM, 15 mM and 20 mM, p≤0.01) was “significant IOP lowering”. For the same molecule, the IOP lowering in data set [1] (10 mM CKLP1 topical once daily) was found to be 2.3±0.5 mmHg; in data set [1] (15 mM CKLP1 topical once daily) it was 2.5±0.4 mmHg. Moreover, in data set [2] (10 mM CKLP1 once daily, 61 consecutive days), the “average IOP in treated eye” value stood at 12.9±2.0 mmHg. For the same molecule, in data set [2] (10 mM CKLP1 once daily, 61 days), the “eye redness, swelling of the eye or eyelids, unusual discharge from eye, food intake” value was “No notable findings”. Moreover, the “IOP reduced by” value in data set [2] (setting [8]) came to 18.9±1.3%. The same molecule returned an IOP reduction in data set [2] (setting [8]) of 3.0±0.5 mmHg. Further, the “return of IOP to baseline after CKLP1 administration” value in data set [2] (dogs (FIG. 7A), same effect in African green monkeys (FIG. 8A)) is “greater than 24 hours”. The “IOP lowered by (summary)” value in data set [2] (hound dogs) is “approximately 19%”. The no-observed-adverse-effect level (NOAEL) in data set [3] (iv, read-out: no-observed adverse effect level (NOAEL)) is 3 mg/kg. Also, in data set [3] (single escalating IV doses, read-out: maximum tolerated dose (MTD)), the maximal tolerated dose (MTD) came to 3 mg/kg. Further, in the data set with beagles (IV 5 mg/kg), the adverse clinical signs result was “increased heart rate, warm to touch, and/or partly closed eyes”. Also, the “Clinical Signs” value is recorded as “red discoloration of the skin (pinnae, gums, generalized” in the data set on beagles (IV CKLP1 0.5 mg/kg); “red discoloration of the skin (pinnae, gums, generalized” with beagles (IV CKLP1 1.5 mg/kg); “red discoloration of the skin (pinnae, gums, generalized” with beagles (IV CKLP1 3 mg/kg); “red discoloration of the skin (pinnae, gums, generalized” in the data set with beagles (IV CKLP1 5 mg/kg). Besides, the histological examination result in the data set with beagles (escalating IV doses) is “no systemic toxicity”. Moreover, the “mortality, body weight, food consumption” value with beagles (escalating IV doses 0.05-5 mg/kg) is “No mortality, change in body weight or food consumption”. The “dose with red discoloration of the skin” value in the data set with beagles (female dog) is on record as not below 0.5 mg/kg; in the data set on beagles (male dog) it was not below 0.05 mg/kg. The peripheral vasodilation entry with beagles (following intravenous administration in dogs) was “induces peripheral vasodilation”. Also, the “diastolic blood pressure during treatment” value in data set [4] (baseline 80.1±8.9, p=0.76) is listed as 78.1±5.9 mmHg. Also, the “systolic blood pressure during treatment” value in data set [4] (baseline 141.0±6.7, p=0.56) is on record as 138.9±9.5 mmHg. In addition, the “diastolic pressure following treatment” value in data set [5] (baseline 68.1±6.0, p=0.13) is reported as 76.0±8.2 mmHg. Also, in data set [5] (baseline 118.7±12.0, p=0.6), the “systolic pressure after treatment” value amounted to 121.1±7.3 mmHg. Moreover, the “IOP lowered by” value in data set [6] is approximately 16%.

As for `CC1(C)Oc2ccc(C#N)cc2[C@@H](N2CCCC2=O)[C@@H]1O` [Levcromakalim, levcromakalim, reference compound], the “outflow facility (hydraulic conductivity)” value in data set [7] was “significantly improved outflow facility”; in data set [7] (listed as Leveromakalim), “significantly increased outflow facility”.
